In ChEMBL document CHEMBL1129713, “Inhibitors of MMP-1: an examination of P1 C gem-disubstitution in the succinamide hydroxamate series” (Bioorg Med Chem Lett, 1996):

target: T1, Interstitial collagenase (Homo sapiens, UniProt P03956); experiment: Inhibition of Matrix Metallo Proteinase-1 (MMP-1)
T1 sequence (P03956 whole entry): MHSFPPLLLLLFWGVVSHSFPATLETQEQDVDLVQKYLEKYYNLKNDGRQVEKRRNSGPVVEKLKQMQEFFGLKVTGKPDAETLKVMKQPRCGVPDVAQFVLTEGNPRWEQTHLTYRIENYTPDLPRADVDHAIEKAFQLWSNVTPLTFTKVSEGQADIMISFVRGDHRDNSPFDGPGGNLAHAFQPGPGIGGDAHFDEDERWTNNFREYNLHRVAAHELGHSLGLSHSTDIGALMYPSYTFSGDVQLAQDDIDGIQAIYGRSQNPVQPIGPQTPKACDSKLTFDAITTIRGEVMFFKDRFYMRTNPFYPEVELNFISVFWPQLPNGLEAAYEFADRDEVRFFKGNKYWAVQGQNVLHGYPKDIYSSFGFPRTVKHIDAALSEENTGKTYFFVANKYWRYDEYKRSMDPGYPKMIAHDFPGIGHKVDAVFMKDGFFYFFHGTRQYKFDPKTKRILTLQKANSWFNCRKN

Row | SMILES | IC50 [nM]
1 | CNC(=O)[C@H](Cc1ccc(OC)cc1)NC(=O)C1(CC(=O)NO)CCCC1 | 2800
2 | CNC(=O)[C@H](Cc1ccc(OC)cc1)NC(=O)C1(CC(=O)NO)Cc2ccccc21 (stereo in doubt; form 1) | 2200
3 | CNC(=O)[C@H](Cc1ccc(OC)cc1)NC(=O)[C@@]1(CC(=O)NO)CCc2ccccc21 | > 30000
4 | CNC(=O)[C@H](Cc1ccc(OC)cc1)NC(=O)C(C)(CC(=O)NO)c1ccccc1 (stereo partly specified) | 3800
5 | CNC(=O)[C@H](Cc1ccc(OC)cc1)NC(=O)[C@]1(CC(=O)NO)CCc2ccccc21 | 17500
6 | CNC(=O)[C@H](Cc1ccc(OC)cc1)NC(=O)C1(CC(=O)NO)Cc2ccccc21 (stereo in doubt; form 2) | 800

The next molecules have a lower IC50 than those just listed; values first:

Row | IC50 [nM] | SMILES
7 | 40 | CNC(=O)[C@H](Cc1ccc(OC)cc1)NC(=O)C(CC(=O)NO)c1ccccc1 (stereo partly specified)
8 | 770 | CNC(=O)[C@H](Cc1ccc(OC)cc1)NC(=O)C1(CC(=O)NO)CCCc2ccccc21 (stereo partly specified)
9 | 150 | CNC(=O)[C@H](Cc1ccc(OC)cc1)NC(=O)C1(CC(=O)NO)CCCCC1
10 | 570 | CNC(=O)[C@H](Cc1ccc(OC)cc1)NC(=O)C1(CC(=O)NO)Cc2ccccc2C1
11 | 460 | CNC(=O)[C@H](Cc1ccc(OC)cc1)NC(=O)C(C)(CC(=O)NO)CC(C)C (stereo partly specified)
